What is called Ki is the equilibrium dissociation constant of an inhibitor or competing ligand from its target.

The text below walks through data of ChEMBL document CHEMBL1139429, “2-Thiazolylimino/heteroarylimino-5-arylidene-4-thiazolidinones as new agents with SHP-2 inhibitory action” (J Med Chem, 2008).

The target of this experiment is T1, Tyrosine-protein phosphatase non-receptor type 11 (Homo sapiens, UniProt Q06124).
T1 sequence (Q06124 whole entry): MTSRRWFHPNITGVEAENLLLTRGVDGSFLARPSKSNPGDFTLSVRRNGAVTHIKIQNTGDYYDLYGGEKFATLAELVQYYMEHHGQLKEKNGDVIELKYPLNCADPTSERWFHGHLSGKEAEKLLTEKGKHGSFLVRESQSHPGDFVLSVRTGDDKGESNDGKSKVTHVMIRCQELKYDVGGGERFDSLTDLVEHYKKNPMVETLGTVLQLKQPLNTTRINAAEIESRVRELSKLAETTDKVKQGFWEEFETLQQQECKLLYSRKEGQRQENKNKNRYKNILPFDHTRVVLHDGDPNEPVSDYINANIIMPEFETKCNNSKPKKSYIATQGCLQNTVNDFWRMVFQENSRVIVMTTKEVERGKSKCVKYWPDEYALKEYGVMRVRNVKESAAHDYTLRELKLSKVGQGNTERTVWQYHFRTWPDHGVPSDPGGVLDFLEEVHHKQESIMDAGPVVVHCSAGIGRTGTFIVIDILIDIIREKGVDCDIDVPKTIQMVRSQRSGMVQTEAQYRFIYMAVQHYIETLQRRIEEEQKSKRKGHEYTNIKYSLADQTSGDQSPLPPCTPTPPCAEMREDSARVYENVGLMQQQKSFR
In words: Inhibition of human recombinant GST-fused SHP2 using p-nitrophenyl phosphate as substrate.

With `COc1ccc(/C=C2/S/C(=N/c3nccs3)NC2=O)cc1`, the inhibition constant (Ki) came out at 11.7 µM.
As for `O=C1N/C(=N\c2nccs2)S/C1=C/c1cccc(Cl)c1`, the inhibition constant Ki is 1090 µM.
Consider `O=C1N/C(=N\c2nccs2)S/C1=C/c1ccc([N+](=O)[O-])cc1`, for which the Ki came to 474 µM.
In the case of `COc1ccc(/C=C2/S/C(=N\c3nsc4ccccc34)NC2=O)cc1`, the Ki was determined as 22.8 µM.
As to `COc1cc(/C=C2/S/C(=N/c3nc(C45CC6CC(CC(C6)C4)C5)cs3)NC2=O)ccc1O`, the Ki is 12.3 µM.
As for `COc1cc(/C=C2/S/C(=N/c3nc4ccccc4s3)NC2=O)cc(OC)c1O`, the Ki is 18.1 µM.
In the case of `COc1cc(/C=C2/S/C(=N/c3nc(-c4ccccc4)cs3)NC2=O)ccc1O`, the Ki was 103 µM.
Consider `O=C1N/C(=N\c2nc3ccccc3s2)S/C1=C/c1cccc([N+](=O)[O-])c1`, for which the Ki was 28.7 µM.
Regarding `COc1cc(/C=C2/S/C(=N\c3nsc4ccccc34)NC2=O)ccc1O`, the Ki stood at 90.8 µM.
Consider `COc1cc(/C=C2/S/C(=N/c3nc4ccc([N+](=O)[O-])cc4s3)NC2=O)cc(OC)c1O`, for which the Ki was determined as 12.9 µM.
